Calls of active or inactive are those of the source.
Key:
[1] = biological target: Lysosomal acid glucosylceramidase (Homo sapiens, UniProt P04062); assay: Dose response cell-based high throughput screening assay to identify enhancers of beta-glucosidase activity. [Related pubchem assays: 784 ]; format: functional
[2] = biological target: T1, Eukaryotic translation initiation factor 2-alpha kinase 3 (Homo sapiens, UniProt Q9NZJ5); assay: Dose response cell-based high-throughput screening assay to measure PERK inhibition. [Related pubchem assays: 1416 ]; format: functional
T1 sequence (Q9NZJ5 whole entry): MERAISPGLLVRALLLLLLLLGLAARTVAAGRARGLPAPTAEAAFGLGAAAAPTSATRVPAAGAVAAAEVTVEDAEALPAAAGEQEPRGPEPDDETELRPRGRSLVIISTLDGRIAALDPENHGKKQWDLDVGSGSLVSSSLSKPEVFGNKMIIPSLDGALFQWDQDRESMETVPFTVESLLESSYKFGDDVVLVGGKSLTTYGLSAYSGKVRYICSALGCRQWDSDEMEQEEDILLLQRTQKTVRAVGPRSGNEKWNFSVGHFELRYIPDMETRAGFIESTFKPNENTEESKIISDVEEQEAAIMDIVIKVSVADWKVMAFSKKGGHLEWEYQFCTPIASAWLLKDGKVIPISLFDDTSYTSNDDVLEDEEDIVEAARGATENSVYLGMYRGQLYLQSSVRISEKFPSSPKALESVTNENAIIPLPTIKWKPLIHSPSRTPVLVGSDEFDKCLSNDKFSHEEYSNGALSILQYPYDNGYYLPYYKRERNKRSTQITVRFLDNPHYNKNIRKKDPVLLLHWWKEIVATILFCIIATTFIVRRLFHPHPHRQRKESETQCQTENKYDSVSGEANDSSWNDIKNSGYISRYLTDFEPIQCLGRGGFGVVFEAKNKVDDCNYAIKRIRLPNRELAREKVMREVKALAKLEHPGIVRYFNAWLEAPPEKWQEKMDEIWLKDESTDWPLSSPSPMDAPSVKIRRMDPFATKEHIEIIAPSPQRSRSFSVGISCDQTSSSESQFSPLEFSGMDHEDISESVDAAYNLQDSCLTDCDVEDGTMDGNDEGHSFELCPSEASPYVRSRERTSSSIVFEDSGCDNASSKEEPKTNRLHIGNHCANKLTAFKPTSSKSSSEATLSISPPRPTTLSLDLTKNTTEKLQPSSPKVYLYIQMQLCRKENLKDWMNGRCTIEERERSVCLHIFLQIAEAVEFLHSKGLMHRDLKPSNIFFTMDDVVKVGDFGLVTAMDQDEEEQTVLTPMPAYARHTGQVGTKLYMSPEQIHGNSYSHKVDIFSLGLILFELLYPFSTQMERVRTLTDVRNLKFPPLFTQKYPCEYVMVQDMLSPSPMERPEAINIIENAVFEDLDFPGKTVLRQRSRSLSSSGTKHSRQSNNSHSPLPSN

[3] = biological target: T1, Eukaryotic translation initiation factor 2-alpha kinase 3; assay: Counterscreen assay for PERK inhibitors: Dose response cell-based high throughput screening assay to measure inhibition of PERK at 6 hours. [Related pubchem assays: 1522, 1416 ]; format: functional
[4] = biological target: Peroxisome proliferator-activated receptor gamma/Nuclear receptor coactivator 2 (Homo sapiens, UniProt P37231); format: functional;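 also: agonist potency for raising coactivator recruitment to the receptor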
[5] = biological target: Peroxisome proliferator-activated receptor gamma/Nuclear receptor coactivator 1 (Homo sapiens, UniProt P37231); format: functional;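 also: agonist potency as compounds enhance coactivator SRC-1 recruitment to PPARgamma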
Chain of Peroxisome proliferator-activated receptor gamma/Nuclear receptor coactivator 1 (P37231 whole entry): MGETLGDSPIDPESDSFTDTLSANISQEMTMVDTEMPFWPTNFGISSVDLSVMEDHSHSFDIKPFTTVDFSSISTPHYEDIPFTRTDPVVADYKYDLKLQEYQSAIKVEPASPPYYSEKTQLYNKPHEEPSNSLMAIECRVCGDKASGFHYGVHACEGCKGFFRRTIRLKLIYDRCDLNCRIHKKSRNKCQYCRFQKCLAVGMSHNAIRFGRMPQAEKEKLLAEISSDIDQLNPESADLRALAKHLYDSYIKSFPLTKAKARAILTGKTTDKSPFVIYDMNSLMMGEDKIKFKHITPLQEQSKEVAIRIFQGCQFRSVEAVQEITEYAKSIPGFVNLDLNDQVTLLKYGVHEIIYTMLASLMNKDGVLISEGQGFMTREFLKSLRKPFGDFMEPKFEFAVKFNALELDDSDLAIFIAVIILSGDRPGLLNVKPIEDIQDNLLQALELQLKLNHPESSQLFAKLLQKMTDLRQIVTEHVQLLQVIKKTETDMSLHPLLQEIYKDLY
Chain of Peroxisome proliferator-activated receptor gamma/Nuclear receptor coactivator 1 (Q15788 whole entry, further chain): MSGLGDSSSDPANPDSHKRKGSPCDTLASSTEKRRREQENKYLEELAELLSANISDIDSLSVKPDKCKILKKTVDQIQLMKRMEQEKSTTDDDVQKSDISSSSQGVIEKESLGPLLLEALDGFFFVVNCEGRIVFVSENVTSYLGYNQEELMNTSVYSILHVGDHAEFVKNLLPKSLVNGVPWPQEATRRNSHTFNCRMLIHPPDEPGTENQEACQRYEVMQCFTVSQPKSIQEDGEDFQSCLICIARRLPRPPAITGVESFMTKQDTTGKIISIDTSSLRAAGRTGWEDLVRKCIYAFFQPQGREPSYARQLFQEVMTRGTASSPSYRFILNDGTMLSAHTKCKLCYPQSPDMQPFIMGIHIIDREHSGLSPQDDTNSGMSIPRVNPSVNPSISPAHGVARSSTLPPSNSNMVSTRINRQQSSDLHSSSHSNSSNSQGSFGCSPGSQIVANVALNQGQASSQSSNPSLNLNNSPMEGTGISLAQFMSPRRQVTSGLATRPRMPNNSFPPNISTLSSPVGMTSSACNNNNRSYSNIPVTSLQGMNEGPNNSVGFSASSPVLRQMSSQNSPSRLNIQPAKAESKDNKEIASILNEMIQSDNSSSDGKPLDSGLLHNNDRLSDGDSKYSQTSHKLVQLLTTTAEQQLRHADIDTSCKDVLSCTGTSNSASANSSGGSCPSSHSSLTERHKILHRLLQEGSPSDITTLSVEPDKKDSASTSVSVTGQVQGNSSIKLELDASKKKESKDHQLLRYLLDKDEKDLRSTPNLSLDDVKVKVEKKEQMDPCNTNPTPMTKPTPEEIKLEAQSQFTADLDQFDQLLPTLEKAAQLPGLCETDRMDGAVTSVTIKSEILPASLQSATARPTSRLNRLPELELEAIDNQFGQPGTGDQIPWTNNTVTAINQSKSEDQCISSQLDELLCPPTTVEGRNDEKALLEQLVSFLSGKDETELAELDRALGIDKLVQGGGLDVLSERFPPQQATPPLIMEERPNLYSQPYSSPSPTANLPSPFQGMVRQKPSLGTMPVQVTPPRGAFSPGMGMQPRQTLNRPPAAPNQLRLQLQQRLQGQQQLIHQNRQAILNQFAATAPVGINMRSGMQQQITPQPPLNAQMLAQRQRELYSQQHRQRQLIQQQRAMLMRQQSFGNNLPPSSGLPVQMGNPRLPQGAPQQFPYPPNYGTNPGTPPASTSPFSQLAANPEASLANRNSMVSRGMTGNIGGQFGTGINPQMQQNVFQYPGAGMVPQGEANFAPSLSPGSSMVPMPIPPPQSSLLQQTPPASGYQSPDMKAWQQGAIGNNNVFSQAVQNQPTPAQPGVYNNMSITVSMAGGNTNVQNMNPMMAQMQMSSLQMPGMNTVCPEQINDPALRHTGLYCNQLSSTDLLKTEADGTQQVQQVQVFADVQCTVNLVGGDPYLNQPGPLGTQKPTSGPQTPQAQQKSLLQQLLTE

[6] = biological target: Peroxisome proliferator-activated receptor gamma/Nuclear receptor coactivator 3 (Homo sapiens, UniProt P37231); format: functional;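 also: agonist potency for raising coactivator recruitment to the receptor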
[7] = Luminescence Cell-Based Dose-Confimation HTS to Identify Inhibitors of 5'UTR Stem-Loop Driven Alpha-Synuclein mRNA Translation in H4 Neuroglioblastoma Cells. [Related pubchem assays: 1827 (Project Summary), 1813 (Primary HTS)]; format: functional
[8] = HEK-293T viability loss after treatment – luminescence, T-cell screen hits, cytotoxicity control for TCR NF-kB inhibitor project, dose response (AID 489026); format: functional, cell-based;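 also: cells exposed to compound about 14 hours before the viability readout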
[9] = Luminescence-based dose response cell-based high throughput screening assay for cytotoxic compounds using the IEC-6 intestinal epithelial cell line. [Related pubchem assays: 1858 (Summary AID.), 1825 (Counterscreen.), 1907 (Confirmation screen.)]; format: functional
[10] = biological target: Beta-galactosidase (Escherichia coli, UniProt Q8VNN2); assay: PubChem AID 485352; format: functional
Chain of Beta-galactosidase (Q8VNN2 whole entry): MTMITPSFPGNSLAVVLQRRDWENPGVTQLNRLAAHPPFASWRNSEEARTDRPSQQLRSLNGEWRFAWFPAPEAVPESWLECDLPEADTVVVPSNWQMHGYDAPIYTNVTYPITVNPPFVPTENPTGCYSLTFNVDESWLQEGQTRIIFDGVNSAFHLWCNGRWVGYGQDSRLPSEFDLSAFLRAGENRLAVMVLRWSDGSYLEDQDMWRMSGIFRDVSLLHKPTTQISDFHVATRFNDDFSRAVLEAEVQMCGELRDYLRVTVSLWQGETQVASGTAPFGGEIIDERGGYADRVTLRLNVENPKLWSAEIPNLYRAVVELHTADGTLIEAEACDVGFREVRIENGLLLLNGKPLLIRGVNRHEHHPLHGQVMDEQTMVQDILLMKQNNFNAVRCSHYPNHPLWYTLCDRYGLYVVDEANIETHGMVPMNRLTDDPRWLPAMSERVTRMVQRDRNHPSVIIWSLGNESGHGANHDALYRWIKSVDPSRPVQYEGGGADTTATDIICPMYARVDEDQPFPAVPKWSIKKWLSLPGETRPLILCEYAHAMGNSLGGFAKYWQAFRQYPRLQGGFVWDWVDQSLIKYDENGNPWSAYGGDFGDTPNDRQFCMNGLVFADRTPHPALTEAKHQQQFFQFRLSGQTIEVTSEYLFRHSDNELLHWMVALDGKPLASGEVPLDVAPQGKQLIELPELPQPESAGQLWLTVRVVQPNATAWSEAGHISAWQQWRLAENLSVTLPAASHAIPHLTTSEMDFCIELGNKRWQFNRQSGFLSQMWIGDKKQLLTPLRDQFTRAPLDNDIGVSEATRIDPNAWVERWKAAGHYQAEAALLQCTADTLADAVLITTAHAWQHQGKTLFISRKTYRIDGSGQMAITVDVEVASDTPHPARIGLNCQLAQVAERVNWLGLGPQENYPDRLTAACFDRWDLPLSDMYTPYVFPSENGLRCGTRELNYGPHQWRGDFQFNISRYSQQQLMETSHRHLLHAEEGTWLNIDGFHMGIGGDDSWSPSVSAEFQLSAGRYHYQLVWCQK

[11] = biological target: G-protein coupled receptor 55 (Homo sapiens, UniProt Q9Y2T6); assay: inhibition of LPI-stimulated GPR55 beta-arrestin translocation – imaging, U2OS, beta-arrestin-GFP, LPI agonist, primary screen (AID 2013); format: functional;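 also: antagonist potency measured as reduced agonist-driven arrestin aggregation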
[12] = tested on: HeLa; assay: Cytotoxicity counterscreen assay for transcriptional activators of heat shock protein 70 (Hsp70). [Related pubchem assays: 1203, 1252 ]; format: functional; conditions: Homo sapiens;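 also: cells exposed to compound for 16 hours before readout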
[13] = biological target: T2, Type-1 angiotensin II receptor (Homo sapiens, UniProt P30556); assay: antagonism of angiotensin II type 1 receptor – cell-based, uHTS hits, selectivity assay for APJ receptor antagonist project, dose response (AID 463214); format: functional;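 also: antagonist potency against angiotensin II stimulated AT1 response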
T2 sequence (P30556 whole entry): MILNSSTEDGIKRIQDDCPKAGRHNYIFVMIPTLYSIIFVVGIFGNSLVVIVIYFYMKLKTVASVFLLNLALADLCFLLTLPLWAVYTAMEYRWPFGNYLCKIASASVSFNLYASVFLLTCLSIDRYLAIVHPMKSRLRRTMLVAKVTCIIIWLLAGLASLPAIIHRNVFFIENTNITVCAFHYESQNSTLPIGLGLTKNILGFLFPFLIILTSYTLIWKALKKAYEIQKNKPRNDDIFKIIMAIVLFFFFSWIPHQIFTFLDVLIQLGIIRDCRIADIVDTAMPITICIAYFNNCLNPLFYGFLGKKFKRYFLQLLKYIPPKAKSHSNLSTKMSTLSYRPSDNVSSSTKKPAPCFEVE

[14] = biological target: T3, Streptokinase A (Streptococcus pyogenes serotype M1, UniProt P10520); assay: viability-normalized secreted streptokinase activity reduction – plasminogen activation absorbance, OD405, dose response (AID 1914); format: functional, Streptococcus pyogenes M1 GAS;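 also: secreted streptokinase activity via plasminogen activation per viability signal from cell pellet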
T3 sequence (P10520 whole entry): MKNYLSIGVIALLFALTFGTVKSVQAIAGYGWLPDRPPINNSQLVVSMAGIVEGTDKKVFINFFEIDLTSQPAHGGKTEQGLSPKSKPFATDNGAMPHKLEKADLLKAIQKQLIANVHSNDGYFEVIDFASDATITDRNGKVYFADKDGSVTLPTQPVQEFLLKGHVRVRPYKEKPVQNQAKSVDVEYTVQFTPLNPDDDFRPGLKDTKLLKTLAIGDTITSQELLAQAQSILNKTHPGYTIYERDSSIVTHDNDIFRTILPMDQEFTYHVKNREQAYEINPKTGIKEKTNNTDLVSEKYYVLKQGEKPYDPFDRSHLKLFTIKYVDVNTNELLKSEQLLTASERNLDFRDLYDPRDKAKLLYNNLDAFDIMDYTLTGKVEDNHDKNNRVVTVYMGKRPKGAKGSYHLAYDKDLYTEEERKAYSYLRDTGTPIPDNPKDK

[15] = HPDE-C7 pancreatic duct cell viability loss – fluorescence, HTS (AID 430); format: functional, cell-based; conditions: Homo sapiens
[16] = viability loss of HPDE-C7K cells – cell-based, fluorescence, HTS, primary screen (AID 431); format: functional; conditions: Homo sapiens
[17] = Trypanosoma cruzi growth suppression in host cells – NIH3T3 host cells, beta-gal luminescence, confirmation (AID 2044); format: functional, cell-based;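 also: intracellular parasites grown in NIH/3T3 mouse fibroblasts as host cells; luminescent beta-galactosidase reporter signal from transgenic T. cruzi replicating inside host cells; inhibitors lower the luminescence signal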
[18] = tested on: Streptococcus sp. 'group A'; assay: Streptococcus pyogenes SK(-)GAS viability under kanamycin – luminescence, BacTiterGlo, confirmation, counter-screen for streptokinase expression inhibitor project, dose response (AID 1900); format: functional, organism-based
[19] = loss of viability in HepG2 cells – cell-based, CellTiter-Glo, cherry-picked, cytotoxicity control for Shn3 inhibitor project, dose response (AID 624134); format: functional
[20] = tested on: Streptococcus; assay: GAS UMAA2166 growth inhibition – luminescence, BacTiterGlo, counter-screen for streptokinase expression inhibitor project, dose response (AID 1915); format: functional, organism-based;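 also: potency for reduction of bacterial viability or growth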
[21] = viability loss in HepG2 hepatoma cells – cell-based, ATP luminescence, cherry-pick, activator set 2, cytotoxicity control, dose response (AID 1053143); format: functional
[22] = cells; format: functional, cell-based
[23] = tested on: INS1; assay: INS-1E survival protection against cytokine death – cell-based, luminescence, retest, dose response (AID 449756); format: functional; conditions: Rattus norvegicus;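 also: cell death triggered by IL-1 beta plus TNF-alpha plus IFN-gamma mixture; protective hits raise ATP signal compared with cytokine alone wells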
[24] = reduction of Shn3 3'UTR-driven luciferase in osteoblasts – cell-based, Clone20 osteoblasts, firefly luciferase, cherry-picked, dose response (AID 624132); format: functional;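 also: firefly luciferase luminescence from reporter carrying the Shn3 3'UTR in osteoblasts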
[25] = non-specific 3'UTR reporter inhibition in Clone20-Shn3RL – cell-based, Renilla luciferase, cherry-picked, counter-screen for Shn3 inhibitor project, dose response (AID 624133); format: functional
[26] = biological target: Serine/threonine-protein phosphatase PP1-alpha catalytic subunit (Homo sapiens, UniProt P62136); assay: inhibition of protein phosphatase 1 activity – biochemical, fluorescence, dose response (AID 2403);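 also: phosphatase turnover of OMFP into fluorescent 3-O-methylfluorescein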
Chain of Serine/threonine-protein phosphatase PP1-alpha catalytic subunit (P62136 whole entry): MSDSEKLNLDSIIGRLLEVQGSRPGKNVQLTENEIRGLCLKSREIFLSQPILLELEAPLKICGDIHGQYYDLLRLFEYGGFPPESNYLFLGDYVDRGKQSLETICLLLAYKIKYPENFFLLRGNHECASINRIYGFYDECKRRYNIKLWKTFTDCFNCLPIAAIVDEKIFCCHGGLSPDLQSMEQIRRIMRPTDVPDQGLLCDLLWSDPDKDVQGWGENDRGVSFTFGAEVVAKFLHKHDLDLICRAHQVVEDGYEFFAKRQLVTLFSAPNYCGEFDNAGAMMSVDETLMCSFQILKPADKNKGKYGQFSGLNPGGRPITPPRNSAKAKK

[27] = cells; format: functional, cell-based; remark: listed apart in the source
[28] = NIH3T3 cell viability loss – ATP luminescence, mouse fibroblasts, counter-screen, dose response (AID 2010); format: functional, cell-based;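 also: cells exposed to compound for about 90 hours before reading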
[29] = IC50 of Artemis nuclease activity blockers – biochemical, fluorescence intensity, dose response (AID 720701); format: functional;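 also: Artemis endonuclease enzyme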
[30] = biological target: Nonstructural protein 1 (Influenza A virus, UniProt Q194T2); format: functional, Influenza A virus (A/California/07/2009(H1N1))
[31] = biological target: T4, Serine/threonine-protein phosphatase (Homo sapiens, UniProt Q9BPW0); assay: Counterscreen for inhibitors of PP1: fluorescence-based biochemical high throughput dose response assay to identify inhibitors of Protein Phosphatase 5 (PP5). [Related pubchem assays: 2034 (Summary (PP5 inhibitors)), 1987 (PP5 inhibitors in singlate), 2235 (PP1 inhibitors in singlate)]
T4 sequence (Q9BPW0 whole entry): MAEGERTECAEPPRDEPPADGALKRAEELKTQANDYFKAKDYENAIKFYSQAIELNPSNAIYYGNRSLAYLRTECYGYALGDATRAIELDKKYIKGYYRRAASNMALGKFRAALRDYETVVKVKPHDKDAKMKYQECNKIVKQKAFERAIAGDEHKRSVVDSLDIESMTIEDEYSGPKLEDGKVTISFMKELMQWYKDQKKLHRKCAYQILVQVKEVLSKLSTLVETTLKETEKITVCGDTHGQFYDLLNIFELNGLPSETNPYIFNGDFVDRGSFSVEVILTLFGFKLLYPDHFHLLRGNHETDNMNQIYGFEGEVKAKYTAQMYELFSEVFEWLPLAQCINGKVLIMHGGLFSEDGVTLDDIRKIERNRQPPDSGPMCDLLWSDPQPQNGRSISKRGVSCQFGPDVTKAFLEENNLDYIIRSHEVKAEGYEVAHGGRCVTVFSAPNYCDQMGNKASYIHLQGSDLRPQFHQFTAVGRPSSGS

[32] = biological target: Leucine aminopeptidase (Plasmodium falciparum 3D7, UniProt Q8IL11); assay: P. falciparum M17LAP inhibitors, primary screen, biochemical, fluorogenic H-Leu-NHMec substrate, 1536-well (AID 1619); format: functional
Chain of Leucine aminopeptidase (Q8IL11 whole entry): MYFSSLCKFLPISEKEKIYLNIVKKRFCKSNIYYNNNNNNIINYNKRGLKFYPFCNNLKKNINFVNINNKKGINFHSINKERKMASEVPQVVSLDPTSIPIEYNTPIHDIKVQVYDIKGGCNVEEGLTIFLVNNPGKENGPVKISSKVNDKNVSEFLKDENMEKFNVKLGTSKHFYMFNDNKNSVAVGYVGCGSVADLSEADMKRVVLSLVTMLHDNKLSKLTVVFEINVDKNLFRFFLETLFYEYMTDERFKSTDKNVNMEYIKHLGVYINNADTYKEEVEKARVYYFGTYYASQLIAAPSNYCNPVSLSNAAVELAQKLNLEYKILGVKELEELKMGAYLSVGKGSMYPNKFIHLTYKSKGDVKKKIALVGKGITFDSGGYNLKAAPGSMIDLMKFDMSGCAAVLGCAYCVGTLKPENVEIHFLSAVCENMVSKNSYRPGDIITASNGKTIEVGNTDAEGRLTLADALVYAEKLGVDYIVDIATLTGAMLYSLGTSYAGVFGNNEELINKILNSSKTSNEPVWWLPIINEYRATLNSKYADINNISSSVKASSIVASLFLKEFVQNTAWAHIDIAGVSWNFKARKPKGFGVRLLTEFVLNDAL

## Cc1ccc(-n2c(=O)c(C#N)cc3c(=O)n4ccccc4nc32)cc1
[1]
  EC50: > 50 µM (not active)

## CCSc1nnc(NC(=O)c2cc(-c3ccccc3O)[nH]n2)s1
[2]
  EC50: > 55.7 µM (not active)
[3]
  EC50: > 55.7 µM (not active)

## O=C(CSc1ccc2nnc(-c3ccccn3)n2n1)NCc1ccc2c(c1)OCO2
[4]
  EC50: > 79.4 µM (not active)
[5]
  EC50: > 79.4 µM (not active)
[6]
  EC50: > 79.4 µM (not active)

## Cc1cccc(C)c1-n1nnnc1SCc1nc(N)nc(N(C)C)n1
[7]
  EC50: 8.3 µM (active)

## COc1ccc(NC(=O)/C(Cl)=C(/Cl)[S+]([O-])Cc2ccccc2Cl)cn1 (configuration not stated)
[8]
  IC50: 25.3 µM (inactive)
[9]
  IC50: 1.36 µM (active)
[10]
  EC50: > 40 µM (inactive)
[11]
  IC50: 3.25 µM (active)
[12]
  CC50: 1.43 µM (active)
[13]
  IC50: 4.54 µM (active)

## Oc1c(C(Nc2ccccn2)c2ccccn2)ccc2cccnc12 (configuration not stated)
[14]
  EC50: > 150 µM (not active)
[15]
  EC50: 17.6 µM (active)
[16]
  EC50: > 20 µM (not active)
[17]
  EC50: 1.22 µM (active)
[18]
  EC50: 7.44 µM (active)
[19]
  AC50: 6 µM (active)
[20]
  EC50: 14.8 µM (active)
[21]
  AC50: 21.9 µM (active)
[22]
  EC50: 9.9 µM (active)
[23]
  AC50: 2.79 µM (active)
[24]
  AC50: 4.36 µM (active)
[25]
  AC50: 2.88 µM (active)
[26]
  IC50: 3.82 µM (active)
[27]
  EC50: > 350 µM (not active)
[28]
  EC50: 5.87 µM (active)
[29]
  IC50: 11.4 µM (active)
[30]
  IC50: 8.2 µM (active)
[31]
  IC50: > 67 µM (not active)

## COc1ccc(NC(=O)Nc2ccc(C(=O)N3CCOCC3)cc2)cc1
[32]
  IC50: 31.6 µM (active)

Reference: ChEMBL document CHEMBL1201862, “PubChem BioAssay data set” (2004)
